US20210177823A1, “NEUROMODULATING COMPOSITIONS AND RELATED THERAPEUTIC METHODS FOR THE TREATMENT OF CANCER” (Flagship Pioneering Innovations V, Inc., priority 2016, published 2021)
Entries after “also recorded” stand apart in the source; their conditions may differ.

How the values were obtained:
[1] = tested on: BXPC3 pancreatic cancer cells; assay: Cancer cell growth in low-serum spheroid culture, Cell Titer Glo readout; type: cell-based; details: at low micromolar concentration; tested 10 nM-10 uM
Method: (§1) Cancer cell lines were grown in appropriate cell culture medium. On day 0, cells were plated in black organogenix nanocult 96-well plates with low-bind honeycomb pattern. Cells were plated in a low serum medium to increase the dynamic range observable for growth promotion. Within three days spheroids were visible. On day 1 post plating, compounds were added at a range of doses to the cells, between mid-nanomolar and low micromolar, spanning at least a 100× dose range. On day 4 post plating, number of cells are quantified by staining with Cell Titer Glo and reading on a plate reader. We observed that adenosine at 10-200 μM enhances the growth of multiple pancreatic cancer cell lines (CFPAC, PANC-1, PL45, ASPC-1, CAPAN-1, CAPAN-2) by at least 10% increased signal over 24 hours than untreated cells. Upon follow-up of the adenosine pathway, we performed a similar assay with chemical antagonists of adenosine receptors at a range of concentrations between 10 nM-10 uM.

[2] = tested on: NCI-H82 small cell lung cancer cells; assay: as above; type: cell-based; details: at low micromolar concentration; tested 10 nM-10 uM
Method: as §1

[3] = tested on: Glioblastoma lines A172, LN-18, T98G, LN-229, U87 MG, and U118 MG; assay: Colony formation assay in glioblastoma cell lines (Cyto60 fluorescence); type: cell-based; details: 1 μM to 20 μM, day 9, LN-229, U87, U118
Method: Glioblastoma lines A172, LN-18, T98G, LN-229, U87 MG, and U118 MG were passaged in culture per manufacturer's recommendations.
On day 0 of the experiment, cells were plated in 24 well plates at a density of 500 cells per well in triplicate. On day 1, DRD2 antagonists haloperidol and L741,626 were added to the wells at a range of concentrations between 1 μM and 20 μM. Media was changed every three days. On day 9 of the experiment, cells were fixed with formalin and stained with Cyto60 (a nucleic acid stain). Fluorescence was read on a Licor-Odyssey imager to assess the number of viable cells in the assay.

[4] = tested on: patient-derived xenograft tumors from patient 5217; assay: SCLC PDX subcutaneous tumor with implanted microdose drug delivery device, immunohistochemistry; type: in vivo, nude mice; details: patient 5217 PDX, ~10× lower DRD2 mRNA than patient 5197; device 24 hours in situ
Method: (§2) Small cell lung cancer cells derived from a human donor (CrownBio, San Diego Calif.) were injected subcutaneously into the flanks of nude mice. Tumors were grown to a size of approximately 6-10 mm before device implantation.
(§3) Microdose drug delivery devices were manufactured as described in Jonas et al., Sci. Transl. Med. 7, 284ra57 (2015). Briefly, cylindrical, micro-scale devices with 0.82 (diameter)×4 mm (length) were manufactured from medical-grade Delrin acetyl resin blocks (DuPont) by micromachining (CNC Micromachining Center, Cameron). Circular reservoirs were shaped on the outer surface of devices in dimensions of 230 um (diameter)×250 um (depth). Drug-polymer mixtures were packed into device reservoirs using a tapered, metal needle (Electron Microscopy Sciences) until the reservoirs were completely filled.
Devices were implanted directly into the mouse tumor using a 19-gauge spinal biopsy needle (Angiotech) and a retractable needle obturator to push the device into the tissue. […]
The flank tumor was excised and the tissue containing the device was fixed for 24 hours in 10% formalin and perfused with paraffin. […] Sections were antibody-stained by standard immunohistochemistry using antibodies against cleaved-caspase-3 (CC3), KI-67, and phospho-AKT (Cell Signaling) and scored using an ImageJ image (v1.48) analysis algorithm in a blinded manner.

[5] = tested on: patient-derived xenograft tumors from patient 5197; assay: SCLC PDX subcutaneous tumor with implanted microdose drug delivery device, immunohistochemistry (CC3, phospho-AKT); type: in vivo, nude mice; details: intratumoral device reservoir, 24 hours in situ; patient 5197 PDX
Method: as §2, §3
Devices were implanted directly into the mouse tumor using a 19-gauge spinal biopsy needle (Angiotech) and a retractable needle obturator to push the device into the tissue. Devices containing the drugs remained in situ for 24 hours.
The flank tumor was excised and the tissue containing the device was fixed for 24 hours in 10% formalin and perfused with paraffin. This specimen was sectioned using a standard microtome and tissue sections were collected from each reservoir. Sections were antibody-stained by standard immunohistochemistry using antibodies against cleaved-caspase-3 (CC3), KI-67, and phospho-AKT (Cell Signaling) and scored using an ImageJ image (v1.48) analysis algorithm in a blinded manner.

[6] = tested on: pancreatic cancer cell lines (CFPAC, PANC-1, PL45, ASPC-1, CAPAN-1, CAPAN-2); assay: Cancer cell growth in low-serum spheroid culture, Cell Titer Glo readout; type: cell-based; details: adenosine at 10-200 μM, over 24 hours
MIAPaCa2 Fluc cells = assay: Orthotopic MIAPACA2 pancreatic cancer model, tumor weight at end of study; type: in vivo, Nude mice (Nu/Nu); details: daily IP, three weeks after initiation of dosing; for reduction in tumor weight at the end of study: compared to vehicle-treated group
Method: MIAPaCa2 Fluc cells were grown in DMEM tissue culture media with 10% fetal calf serum, 2.5% Horse Serum, 1% penicillin/streptomycin and Puromycin (20 ug/mL). On the day of implantation, cells were washed in PBS, trypsinized and resuspended at a density of 2×10^6 cells/ml in a Matrigel solution prior to being implanted into the pancreas a volume of 0.05 mL using a 25 G needle. Nude mice (Nu/Nu) were anesthetized and the pancreas exposed via peritoneal incision and physical displacement of the spleen. Cells were injected into the pancreas in a total volume of 0.05 mL and the surgical wound closed with VetBond. Bioluminescence was assessed by administration of D-luciferin and imaging on an IVIS system. Mice with leakage of bioluminescent signal immediately after surgery were removed from study. Mice were randomized into groups of equal mean bioluminescence approximately 14 days post-implant. […] One group of mice received haloperidol alone, a second group received gemcitabine chemotherapy (the standard of care for human pancreatic cancer treatment), and a third group received a combination of haloperidol and gemcitabine. For groups also receiving gemcitabine, gemcitabine was dosed 50 mg/kg IP daily. Tumor growth was determined bi-weekly with bioluminescent measurement. The study was terminated three weeks after initiation of drug dosing. At termination, mice were sacrificed and pancreas collected and weighed.

## CCCn1c(=O)c2[nH]c(C34CC5CC(CC3C5)C4)nc2n(CCC)c1=O [KW3902]
[1]
  inhibition of growth of BXPC3 pancreatic cancer cells: inhibited the growth
[2]
  inhibition of growth of NCI-H82 small cell lung cancer cells: inhibited the growth

## OC1(c2ccc(Cl)cc2)CCN(Cc2c[nH]c3ccccc23)CC1 [L-741,626]
[3]
  number of glioblastoma cells growing in culture compared to DMSO control: reduce the number of glioblastoma cells
[4]
  impact of treatment on tumor: at all not impacted; also recorded: not impacted at all
[5]
  cell killing as measured by CC3 positive tissue: dose-dependent cell killing
  phospho-AKT staining gradient (dopamine receptor signaling): negative gradient

## O=C(Cc1ccccc1)Nc1nc2ccc(Cl)cc2c2nc(-c3ccco3)nn12 [MRS-1220]
[2]
  inhibition of growth of NCI-H82 small cell lung cancer cells: inhibited the growth

## Nc1ncnc2c1ncn2[C@@H]1O[C@H](CO)[C@@H](O)[C@H]1O [adenosine]
[6]
  enhancement of growth, increased signal than untreated cells: at least 10%

## N.N.[Cl][Pt][Cl] [cisplatin]
[5]
  cell killing as measured by CC3 positive tissue: minimal cell killing

## Nc1ccn([C@@H]2O[C@H](CO)[C@@H](O)C2(F)F)c(=O)n1 [gemcitabine]
MIAPaCa2 Fluc cells
  reduction in tumor weight at the end of study: equivalent

## O=C(CCCN1CCC(O)(c2ccc(Cl)cc2)CC1)c1ccc(F)cc1 [haloperidol]
MIAPaCa2 Fluc cells
  reduction in tumor weight at the end of study: ~50%
MIAPaCa2 Fluc cells; vehicle 300 mg
  tumor weight at the end of study: 150 mg
[3]
  number of glioblastoma cells growing in culture compared to DMSO control: reduce the number of glioblastoma cells
